Experimental data from BindingDB's records for doi:10.1021/jm00147a007 (1985).

target: Aminopeptidase N (Oryctolagus cuniculus) (UniProt P15541); test: Inhibitory activity against rabbit kidney aminopeptidase using 10 nM of [3H]Leu-enkephalin as substrate
Sequence (P15541 whole entry, looked up): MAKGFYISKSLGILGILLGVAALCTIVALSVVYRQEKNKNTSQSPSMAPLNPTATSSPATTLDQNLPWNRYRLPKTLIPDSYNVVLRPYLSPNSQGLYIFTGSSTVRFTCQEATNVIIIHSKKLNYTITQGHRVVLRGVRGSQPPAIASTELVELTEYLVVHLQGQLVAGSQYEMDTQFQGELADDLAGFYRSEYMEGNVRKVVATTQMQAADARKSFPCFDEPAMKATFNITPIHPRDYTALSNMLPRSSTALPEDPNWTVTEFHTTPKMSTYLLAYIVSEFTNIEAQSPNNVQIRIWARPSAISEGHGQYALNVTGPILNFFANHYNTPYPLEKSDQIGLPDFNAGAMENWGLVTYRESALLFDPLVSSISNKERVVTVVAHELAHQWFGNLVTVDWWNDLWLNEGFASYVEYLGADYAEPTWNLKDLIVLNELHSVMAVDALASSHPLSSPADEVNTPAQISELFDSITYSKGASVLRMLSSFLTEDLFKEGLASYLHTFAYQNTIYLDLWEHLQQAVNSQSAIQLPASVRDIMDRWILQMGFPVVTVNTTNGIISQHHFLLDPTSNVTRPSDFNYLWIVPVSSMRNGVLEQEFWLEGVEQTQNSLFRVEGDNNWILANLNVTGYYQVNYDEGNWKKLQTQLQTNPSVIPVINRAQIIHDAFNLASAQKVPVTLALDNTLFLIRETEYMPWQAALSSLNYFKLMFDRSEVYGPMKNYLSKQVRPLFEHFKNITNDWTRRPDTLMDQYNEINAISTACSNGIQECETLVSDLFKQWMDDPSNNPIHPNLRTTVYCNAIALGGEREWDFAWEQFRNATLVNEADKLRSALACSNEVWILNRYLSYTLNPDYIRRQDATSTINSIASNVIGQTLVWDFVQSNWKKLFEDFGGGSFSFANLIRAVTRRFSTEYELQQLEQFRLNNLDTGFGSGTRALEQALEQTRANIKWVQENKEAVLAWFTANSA

Structure (SMILES) | IC50 [µM]
O=C(O)CNC(=O)C(Cc1ccccc1)C(=O)NO (racemic) | 100
C[C@H](NC(=O)[C@@H](CC(=O)NO)Cc1ccccc1)C(=O)O (racemic) [(RS)-2-(2-Benzyl-3-hydroxycarbamoyl-propionylamino)-propionic acid] | 0.71
O=CN(O)C(Cc1ccccc1)C(=O)NCC(=O)O (centres undefined) [[2-(Formyl-hydroxy-amino)-3-phenyl-propionylamino]-acetic acid] | 25
O=CN(O)CC(Cc1ccccc1)C(=O)NCC(=O)O (centres undefined) [[2-Benzyl-3-(formyl-hydroxy-amino)-propionylamino]-acetic acid] | 0.85
